Measured values taken from ChEMBL document CHEMBL5143634, “Design, synthesis, and anti-influenza A virus activity evaluation of novel indole containing derivatives of triazole” (Bioorg Med Chem Lett, 2022).

How the values were obtained:
Influenza A virus [1] = test: Antiviral activity against Influenza A virus A/WSN/33 (H1N1) infected in HEK293T cells at 10 uM by Gaussia luciferase reporter assay; type: functional; conditions: HEK-293T
Influenza A virus [2] = test: Antiviral activity against Influenza A virus A/WSN/33 (H1N1) infected in HEK293T cells by Gaussia luciferase reporter assay; type: functional, organism-based; conditions: HEK-293T
[3] = Cytotoxicity against human HEK293T cells assessed as cell viability after 48 hrs by CCK-8 assay; type: toxicity, cell-based, HEK-293T
[4] = Selectivity index, ratio of CC50 for human HEK293T cells to IC50 for antiviral activity against Influenza A virus A/WSN/33 (H1N1) infected in HEK293T cells; type: toxicity, cell-based; conditions: read-out: Ratio CC50/IC50

SMILES | inhibition at 10 µM (Influenza A virus [1]) [%] | IC50 (Influenza A virus [2]) [µM] | CC50 at 48 h [3] [µM] | selectivity ratio [4]
Cn1cc(SCc2nnc(SCc3cc(C(F)(F)F)ccc3Cl)n2-c2c(Cl)cccc2Cl)c2ccccc21 | > 50 | 5.1 | 53.8 | 10.6
Cn1cc(SCc2nnc(SCc3ccccc3)n2-c2c(Cl)cccc2Cl)c2ccccc21 | > 50 | 1.34 | > 100 | > 74.6
NC(=O)c1ncn([C@@H]2O[C@H](CO)[C@@H](O)[C@H]2O)n1 [RIBAVIRIN] | – | 27.8 | > 100 | –
Cn1cc(SCc2nnc(SCc3ccc(Cl)cc3C(F)(F)F)n2-c2c(Cl)cccc2Cl)c2ccccc21 | > 50 | 2.59 | 56.5 | 21.8
Cn1cc(SCc2nnc(SCc3ccc(OC(F)(F)F)c(Cl)c3)n2-c2c(Cl)cccc2Cl)c2ccccc21 | > 50 | 7.49 | 77.7 | 10.4
Cn1cc(SCc2nnc(SCc3ccc(Cl)c(F)c3)n2-c2c(Cl)cccc2Cl)c2ccccc21 | > 50 | 7.12 | > 100 | > 14
Cn1cc(SCc2nnc(SCc3cccc(Cl)c3Cl)n2-c2c(Cl)cccc2Cl)c2ccccc21 | > 50 | 2.14 | > 100 | > 46.7
Cn1cc(SCc2nnc(SCc3ccc(Cl)cc3F)n2-c2c(Cl)cccc2Cl)c2ccccc21 | > 50 | 11.5 | 87.3 | 7.67
Cn1cc(SCc2nnc(SCc3ccccc3Cl)n2-c2c(Cl)cccc2Cl)c2ccccc21 | > 50 | 7.46 | 49.6 | 6.65
Cn1cc(SCc2nnc(SCc3c(Cl)cccc3Cl)n2-c2c(Cl)cccc2Cl)c2ccccc21 | > 50 | 9.1 | > 100 | > 11
CCOC(=O)c1c(CSc2nnc(CSc3cn(C)c4ccccc34)n2-c2c(Cl)cccc2Cl)n(C)c2cc(Br)c(OC(C)=O)cc12 | > 50 | 2.27 | > 100 | > 44
Cn1cc(SCc2nnc(SCc3cccc(Cl)c3F)n2-c2c(Cl)cccc2Cl)c2ccccc21 | > 50 | 4.21 | > 100 | > 23.8
Cn1cc(SCc2nnc(SCc3c(F)cccc3Cl)n2-c2c(Cl)cccc2Cl)c2ccccc21 | > 50 | 3.94 | > 100 | > 25.4
Cn1cc(SCc2nnc(SCc3cc(Cl)ccc3F)n2-c2c(Cl)cccc2Cl)c2ccccc21 | > 50 | 2.83 | > 100 | > 35.3
Cn1cc(SCc2nnc(SCc3cc(Cl)ccc3Cl)n2-c2c(Cl)cccc2Cl)c2ccccc21 | > 50 | 5.12 | > 100 | > 19.5
Cn1cc(SCc2nnc(S)n2-c2c(Cl)cccc2Cl)c2ccccc21 | > 50 | 1.48 | > 100 | > 67.6
Cn1cc(SCc2nnc(SCc3ccc(Cl)cc3Cl)n2-c2c(Cl)cccc2Cl)c2ccccc21 | > 50 | 6.19 | > 100 | > 16.2
Cn1cc(SCc2nnc(SCc3ccccc3OC(F)(F)F)n2-c2c(Cl)cccc2Cl)c2ccccc21 | > 50 | 1.41 | > 100 | > 70.9
Cn1cc(SCc2nnc(SCc3ccccc3C#N)n2-c2c(Cl)cccc2Cl)c2ccccc21 | > 50 | 3.18 | 78.6 | 24.7
